This passage reports EC50 and Emax results from US20250235460A1, “COMBINATION THERAPY USING GLUCOSE-DEPENDENT INSULINOTROPIC POLYPEPTIDE RECEPTOR ANTAGONIST COMPOUNDS AND GLP-1 RECEPTOR AGONIST COMPOUNDS” (Pfizer Inc., priority 2024, published 2025).

Usually EC50 stands for the concentration giving half of the maximal effect. Read a low EC50 as higher potency in that assay. The Emax is the greatest response seen or fitted, relative to the assay's reference.

Where two headings read alike, the source gives them in different places. Some results are limits rather than exact numbers.

In the experiment the target is human GLP-1R (Homo sapiens, UniProt P43220, G168S). Nature of the experiment: CHO GLP-1R Clone H6 cAMP HTRF agonist assay (Assay 1, high receptor density). The format is cell-based. The settings on record: for EC50: CHO GLP-1R clone H6, cAMP HTRF, geometric mean; for Emax: arithmetic mean. The source says: In Table 5 and Table 6, assay data are presented to two (2) significant figures as the geometric mean (EC50s) and arithmetic mean (Emax) based on the number of replicates listed (Number). A blank cell means there was no data for that Example or the Emax was not calculated.
Sequence of human GLP-1R (P43220 24-463 G168S): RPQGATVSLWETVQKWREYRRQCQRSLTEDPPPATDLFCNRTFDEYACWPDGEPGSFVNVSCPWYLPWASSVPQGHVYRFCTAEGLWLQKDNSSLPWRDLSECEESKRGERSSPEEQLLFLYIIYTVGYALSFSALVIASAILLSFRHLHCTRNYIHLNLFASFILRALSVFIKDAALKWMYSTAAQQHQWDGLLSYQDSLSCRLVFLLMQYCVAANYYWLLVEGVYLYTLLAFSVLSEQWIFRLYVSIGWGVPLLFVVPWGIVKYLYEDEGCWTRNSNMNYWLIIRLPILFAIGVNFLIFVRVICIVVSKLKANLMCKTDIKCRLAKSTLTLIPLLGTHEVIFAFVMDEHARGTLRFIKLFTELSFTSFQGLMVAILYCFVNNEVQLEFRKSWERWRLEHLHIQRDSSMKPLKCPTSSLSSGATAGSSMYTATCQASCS
Background: Time-resolved FRET reads energy transfer from a long-lived donor to a nearby acceptor.

The mark [1] stands for this setting: CHO GLP-1R clone H6, relative to saturating GLP-1 (1 μM), read-out: Assay 1 Emax (%).

Turning to `COC1(Cn2c(CN3CCC(c4cccc(OCc5ccc(Cl)cc5F)n4)CC3)nc3ccc(C(=O)O)cc32)CCC1` [Compound 177B, 2-[(4-{6-[(4-chloro-2-fluorobenzyl)oxy]pyridin-2-yl}piperidin-1-yl)methyl]-1-[(1-methoxycyclobutyl)methyl]-1H-benzimidazole-6-carboxylic acid], the response was half-maximal at 880 nM (EC50). That is a sub-micromolar value. Compound `COCCn1c(CN2CCC(c3cccc(OCc4ccc(Cl)cc4F)n3)CC2)nc2ccc(C(=O)O)cc21` [Compound 176B, 2-[(4-{6-[(4-chloro-2-fluorobenzyl)oxy]pyridin-2-yl}piperidin-1-yl)methyl]-1-(2-methoxyethyl)-1H-benzimidazole-6-carboxylic acid] showed an EC50 of 2400 nM. The Emax under setting [1] was determined as 87%.

On to `CCn1cncc1Cn1c(CN2CCN(c3cccc(OCc4ccc(C#N)cc4F)n3)CC2)nc2ccc(C(=O)O)cc21` [Compound 152B, 2-[(4-{6-[(4-cyano-2-fluorobenzyl)oxy]pyridin-2-yl}piperazin-1-yl)methyl]-1-[(1-ethyl-1H-imidazol-5-yl)methyl]-1H-benzimidazole-6-carboxylic acid], for which the response was half-maximal at 370 nM (EC50). In addition, the Emax under setting [1] was found to be 75%. `COCCn1c(CN2CCN(c3ccc(F)c(OCc4ccc(Cl)cc4F)n3)CC2C)nc2ccc(C(=O)O)cc21` (stereo in doubt) [Compound 174B, 2-{[(2S)-4-{6-[(4-chloro-2-fluorobenzyl)oxy]-5-fluoropyridin-2-yl}-2-methylpiperazin-1-yl]methyl}-1-(2-methoxyethyl)-1H-benzimidazole-6-carboxylic acid]: the EC50 was 870 nM. `COCCn1c(CN2CCN(c3cccc(OCc4ccc(Cl)cc4F)n3)C(C)(C)C2)nc2ccc(C(=O)O)cc21` [Compound 182B, 2-[(4-{6-[(4-chloro-2-fluorobenzyl)oxy]pyridin-2-yl}-3,3-dimethylpiperazin-1-yl)methyl]-1-(2-methoxyethyl)-1H-benzimidazole-6-carboxylic acid] yielded an EC50 of 1800 nM. The Emax under setting [1] was determined as 93%. Consider `Cn1cncc1Cn1c(CN2CCC(c3cccc(OCc4ccc(C#N)cc4F)n3)CC2)nc2ccc(C(=O)O)nc21` [Compound 274B, 2-[(4-{6-[(4-cyano-2-fluorobenzyl)oxy]pyridin-2-yl}piperidin-1-yl)methyl]-3-[(1-methyl-1H-imidazol-5-yl)methyl]-3H-imidazo[4,5-b]pyridine-5-carboxylic acid], for which the EC50 is greater than 20000 nM.

With `Cn1cnc(CCn2c(CN3CCC(c4cccc(OCc5ccc(Cl)cc5F)n4)CC3)nc3ccc(C(=O)O)cc32)c1` [Compound 276B, 2-[(4-{6-[(4-chloro-2-fluorobenzyl)oxy]pyridin-2-yl}piperidin-1-yl)methyl]-1-[2-(1-methyl-1H-imidazol-4-yl)ethyl]-1H-benzimidazole-6-carboxylic acid], the EC50 was greater than 20000 nM. In turn, `O=C(O)c1ccc2nc(CN3CCC(c4cccc(OCc5ccc(Cl)cc5F)n4)CC3)n(CC3CCCOC3)c2c1` (stereo not shown) [Compound 315B, 2-[(4-{6-[(4-chloro-2-fluorobenzyl)oxy]pyridin-2-yl}piperidin-1-yl)methyl]-1-(tetrahydro-2H-pyran-3-ylmethyl)-1H-benzimidazole-6-carboxylic acid] displayed an EC50 of 440 nM. The Emax under setting [1] was 86%.

For the compound `COCCn1c(CN2CCC(c3cccc4c3OC(C)(c3ccc(C#N)cn3)O4)CC2)nc2ccc(C(=O)O)cc21` (stereo not drawn) [Compound 98B, ammonium 2-({4-[2-(5-cyanopyridin-2-yl)-2-methyl-1,3-benzodioxol-4-yl]piperidin-1-yl}methyl)-1-(2-methoxyethyl)-1H-benzimidazole-6-carboxylate, ENT-X2], the Emax (relative to saturating full agonist GLP-1 (1 μM), read-out: Assay 1 Emax) worked out at 89%.

In turn, `O=C(O)c1ccc2nc(CN3CCC(c4cccc(OCc5ccc(Cl)cc5F)n4)CC3)n(CC3CCOCC3)c2c1` [Compound 324B, 2-[(4-{6-[(4-chloro-2-fluorobenzyl)oxy]pyridin-2-yl}piperidin-1-yl)methyl]-1-(tetrahydro-2H-pyran-4-ylmethyl)-1H-benzimidazole-6-carboxylic acid] yielded an EC50 of 1900 nM. Moreover, under setting [1], the Emax was 79%.

Compound `Cn1cc(Cn2c(CN3CCC(c4cccc(OCc5ccc(Cl)cc5F)n4)CC3)nc3ccc(C(=O)O)cc32)cn1` [Compound 318B, 2-[(4-{6-[(4-chloro-2-fluorobenzyl)oxy]pyridin-2-yl}piperidin-1-yl)methyl]-1-[(1-methyl-1H-pyrazol-4-yl)methyl]-1H-benzimidazole-6-carboxylic acid] registered an EC50 of 520 nM. This counts as sub-micromolar. For `Cn1ncnc1Cn1c(CN2CCC(c3cccc(OCc4ccc(Cl)cc4F)n3)CC2)nc2ccc(C(=O)O)cc21` [Compound 308B, 2-[(4-{6-[(4-chloro-2-fluorobenzyl)oxy]pyridin-2-yl}piperidin-1-yl)methyl]-1-[(1-methyl-1H-1,2,4-triazol-5-yl)methyl]-1H-benzimidazole-6-carboxylic acid], the EC50 worked out at 290 nM. For the same compound, under setting [1], the Emax came out at 74%. For the compound `COCCn1c(CN2CCN(c3cccc(OCc4ccc(Cl)cc4F)n3)CC23CC3)nc2ccc(C(=O)O)cc21` [Compound 349B, 2-[(7-{6-[(4-chloro-2-fluorobenzyl)oxy]pyridin-2-yl}-4,7-diazaspiro[2.5]oct-4-yl)methyl]-1-(2-methoxyethyl)-1H-benzimidazole-6-carboxylic acid], the midpoint of the response, the EC50, lay at 1200 nM. Moreover, the Emax under setting [1] is 58%. In the case of `CCn1cncc1Cn1c(CN2CCC(c3cccc(OCc4ccc(C#N)cc4F)n3)CC2)nc2ccc(C(=O)O)nc21` [Compound 273B, 2-[(4-{6-[(4-cyano-2-fluorobenzyl)oxy]pyridin-2-yl}piperidin-1-yl)methyl]-3-[(1-ethyl-1H-imidazol-5-yl)methyl]-3H-imidazo[4,5-b]pyridine-5-carboxylic acid], the EC50 is greater than 20000 nM. The compound `N#Cc1ccc(COc2cccc(C3CCN(Cc4nc5ccc(C(=O)O)cc5n4C[C@@H]4CCO4)CC3)n2)cc1` [Compound 130B, 2-[(4-{6-[(4-cyanobenzyl)oxy]pyridin-2-yl}piperidin-1-yl)methyl]-1-[(2S)-oxetan-2-ylmethyl]-1H-benzimidazole-6-carboxylic acid] had an EC50 greater than 11000 nM. Further, the Emax under setting [1] was determined as 84%. With `O=C(O)c1ccc2nc(CN3CCC(c4cccc(OCc5ccc(Cl)cc5F)n4)CC3)n(CCC3CCOCC3)c2c1` [Compound 340B, 2-[(4-{6-[(4-chloro-2-fluorobenzyl)oxy]pyridin-2-yl}piperidin-1-yl)methyl]-1-[2-(tetrahydro-2H-pyran-4-yl)ethyl]-1H-benzimidazole-6-carboxylic acid], a half-maximal response (EC50) required 600 nM. Further, under setting [1], the Emax worked out at 70%. In turn, `O=C(O)c1ccc2nc(CN3CCC(c4cccc(OCc5ccc(F)cc5F)n4)CC3)n(C[C@@H]3CCO3)c2n1` [Compound 118B, 2-[(4-{6-[(2,4-difluorobenzyl)oxy]pyridin-2-yl}piperidin-1-yl)methyl]-3-[(2S)-oxetan-2-ylmethyl]-3H-imidazo[4,5-b] pyridine-5-carboxylic acid] showed an EC50 of 750 nM. The Emax under setting [1] came out at 76%. Regarding `O=C(O)c1ccc2nc(CN3CCC(c4cccc(OCc5ccc(Cl)cc5F)n4)CC3)n(Cc3ncon3)c2c1` [Compound 271B, 2-[(4-{6-[(4-chloro-2-fluorobenzyl)oxy]pyridin-2-yl}piperidin-1-yl)methyl]-1-(1,2,4-oxadiazol-3-ylmethyl)-1H-benzimidazole-6-carboxylic acid], the EC50 is greater than 20000 nM.
